The test deals with T1, cloned human CRF-R1 receptors (Homo sapiens, UniProt P34998).
T1 construct: the coding region was amplifies by PCR from start to stop codons; expressed in transfected cells; membranes
T1 sequence (P34998 24-415): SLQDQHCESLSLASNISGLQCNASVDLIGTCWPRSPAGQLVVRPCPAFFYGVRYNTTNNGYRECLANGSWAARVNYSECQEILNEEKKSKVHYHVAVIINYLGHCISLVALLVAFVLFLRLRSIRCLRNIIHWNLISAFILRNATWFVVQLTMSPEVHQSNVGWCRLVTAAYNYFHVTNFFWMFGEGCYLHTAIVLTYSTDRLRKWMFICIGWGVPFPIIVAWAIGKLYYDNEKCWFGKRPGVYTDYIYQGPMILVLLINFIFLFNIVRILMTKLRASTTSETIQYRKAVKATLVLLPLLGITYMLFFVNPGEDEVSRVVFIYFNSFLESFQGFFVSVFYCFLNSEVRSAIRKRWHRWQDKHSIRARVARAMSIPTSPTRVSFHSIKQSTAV
Briefly: CRF-R1 receptor binding assay (inhibition of 125I-ovine-CRF binding to cell membranes). As to conditions: membranes of 293EBNA cells transfected with hCRFR1, class d = reported as percent inhibition at 10 μM, figures not given, read-out: activity (Ki class in the CRF assays). The source says:
The following is a description of the isolation of cell membranes containing cloned human CRF-R1 receptors for use in a standard binding assay as well as a description of the assay itself.
Messenger RNA was isolated from human hippocampus. […]. The mRNA was reverse transcribed using oligo (dt) 12–18 and the coding region was amplifies by PCR from start to stop codons. The resulting PCR fragment was cloned into the EcoRV site of pGEMV, from whence the insert was reclaimed using XhoI+XbaI and cloned into the XhoI+XbaI sites of vector pm3 as (which contains a CMV promoter, the SV′t′ splice and early poly A signals, an Eptein-Barr viral origin of replication, and a hygromycin selectable marker). The resulting expression vector, called phchCRFR was transfected in 293EBNA cells and cells retaining the episome were selected in the presence of […] hygromycin. Cells surviving 4 weeks of selection in hygromycin were pooled, adapted to growth in suspension and used to generate membranes for the binding assay described below. Individual aliquots containing approximately 1×10^8 of the suspended cells were then centrifuged to form a pellet and frozen. For the binding assay a frozen pellet described above containing 293EBNA cells transfected with hCRFR1 receptors is homogenized in 10 mL of ice cold tissue buffer (50 mM HEPES buffer pH 7.0, containing 10 MM MgCl2, 2 mM EGTA, 1 μg/mL apotinin, 1 μg/mL leupeptin and 1 μg/mL pepstatin). The homoginate is centrifuged at 40,000×g for 12 min and the resulting pellet rehomogenized in 10 mL of tissue buffer. After another centrifugation at 40,000×g for 12 min, the pellet is resuspended to a protein concentration of 360 μg/mL to be used in the assay.
Binding assays are performed in 96 well plates; each well having a 300 μL capacity. To each well is added 50 μL of test drug dilutions (final concentration of drugs range from 10^−10–10^−5 M), 100 μL of ^125I-ovine-CRF (^125I-o-CRF) (final concentration 150 pM) and 150 μL of the cell homoginate described above. Plates are then allowed to incubate at room temperature for 2 hours before filtering the incubate over GF/F filters (presoaked with 0.3% polyethyleneimine) using an appropriate cell harvester. Filters are rinsed 2 times with ice cold assay buffer before removing individual filters and assessing them for radioactivity on a gamma counter.
Curves of the inhibition of ^125I-o-CRF binding to cell membranes at various dilutions of test drug are analyzed by the iterative curve fitting program LIGAND [P. J. Munson and D. Rodbard, Anal. Biochem., 107:220 (1980), which provides Ki values for inhibition which are then used to assess biological activity. […]
Messenger RNA was isolated from human hippocampus. The mRNA was isolated from human hippocampus. The mRNA was reverse transcribed using oligo (dt) 12–18 and the coding region was amplifies by PCR from start to stop codons. The resulting PCR fragment was cloned into the EcoRV site of pGEMV, from whence the insert was reclaimed using XhoI+XbaI and cloned into the XhoI+XbaI sites of vector pm3 as (which contains a CMV promoter, the SV′t′ splice and early poly A signals, an Eptein-Barr viral origin of replication, and a hygromycin selectable marker). The resulting expression vector, called phchCRFR was transfected in 293EBNA cells and cells retaining the episome were selected in the presence of […] hygromycin. Cells surviving 4 weeks of selection in hygromycin were pooled, adapted to growth in suspension and used to generate membranes for the binding assay described below. […]
A frozen pellet described above containing 293EBNA cells transfected with hCRFR1 receptors or the rat frontal cortex tissue dissected from frozen rat brains was prepared as the source of membranes expressing CRF1 receptors used in binding assays. […]

As a reminder, the Ki is a measure of affinity in units of concentration, obtained from inhibition or displacement.

With `C=CCOc1ccc(S(=O)(=O)c2ccc(C)nc2Nc2c(C)cc(C)cc2C)cc1` [Example 13, [3-(4-Allyloxybenzenesulfonyl)-6-methylpyridin-2-yl]-(2,4,6-trimethylphenyl)-amine], the Ki was 100 to 500 nM.

In the case of `Cc1cc(C)c(Nc2nc(C)ccc2S(=O)(=O)c2ccc(C)c(C)c2)c(C)c1` [Example 38, [3-(3,4-Dimethylbenzenesulfonyl)-6-methylpyridin-2-yl]-(2,4,6-trimethylphenyl)-amine], the Ki was 100 to 500 nM.

For `COc1ccc(S(=O)(=O)c2ccc(C)nc2Nc2c(C)cc(C)cc2C)cc1OC` [Example 39, [3-(3,4-Dimethoxybenzenesulfonyl)-6-methylpyridin-2-yl]-(2,4,6-trimethylphenyl)-amine], the Ki was 500 to 5000 nM.

Turning to `Cc1cc(C)c(Nc2nc(C)ccc2S(=O)(=O)c2ccc(Cl)c(Cl)c2)c(C)c1` [Example 40, [3-(3,4-Dichlorobenzenesulfonyl)-6-methylpyridin-2-yl]-(2,4,6-trimethylphenyl)-amine], the Ki was in the range of 100 to 500 nM.

`Cc1ccc(S(=O)(=O)c2ccc(C)nc2Nc2c(C)cc(C)cc2C)cc1` [Example 41, [6-Methyl-3-(toluene-4-sulfonyl)-pyridin-2-yl]-(2,4,6-trimethylphenyl)-amine]: the Ki was 100 to 500 nM.

Consider `CCc1ccc(S(=O)(=O)c2ccc(C)nc2Nc2c(C)cc(C)cc2C)cc1` [Example 42, [3-(4-Ethylbenzenesulfonyl)-6-methylpyridin-2-yl]-(2,4,6-trimethylphenyl)-amine], for which the Ki is no more than 100 nM.

Take `Cc1cc(C)c(Nc2nc(C)ccc2S(=O)(=O)c2ccc(C(C)C)cc2)c(C)c1` [Example 43, [3-(4-Isopropylbenzenesulfonyl)-6-methylpyridin-2-yl]-(2,4,6-trimethylphenyl)-amine]: the Ki was 100 to 500 nM.

Regarding `Cc1cc(C)c(Nc2nc(C)ccc2S(=O)(=O)c2ccc(OC(F)(F)F)cc2)c(C)c1` [Example 44, [6-Methyl-3-(4-trifluoromethoxybenzenesulfonyl)-pyridin-2-yl]-(2,4,6-trimethylphenyl)-amine], the Ki was 100 to 500 nM.

Consider `Cc1cc(C)c(Nc2nc(C)ccc2S(=O)(=O)c2ccc(F)cc2)c(C)c1` [Example 45, [3-(4-Fluorobenzenesulfonyl)-6-methylpyridin-2-yl]-(2,4,6-trimethylphenyl)-amine], for which the Ki is 100 to 500 nM.

With `C#Cc1ccc(S(=O)(=O)c2ccc(C)nc2Nc2c(C)cc(C)cc2C)cc1` [Example 47, [3-(4-Ethynylbenzenesulfonyl)-6-methylpyridin-2-yl]-(2,4,6-trimethylphenyl)-amine], the Ki was no more than 100 nM.

Regarding `Cc1cc(C)c(Nc2nc(C)ccc2S(=O)(=O)c2ccc(-c3ccccc3)cc2)c(C)c1` [Example 48, [3-(Biphenyl-4-sulfonyl)-6-methylpyridin-2-yl]-(2,4,6-trimethylphenyl)-amine], the Ki is no more than 100 nM.

In the case of `COc1ccccc1-c1ccc(S(=O)(=O)c2ccc(C)nc2Nc2c(C)cc(C)cc2C)cc1` [Example 49, [3-(2′-Methoxybiphenyl-4-sulfonyl)-6-methylpyridin-2-yl]-(2,4,6-trimethylphenyl)-amine], the Ki was no more than 100 nM.

With `Cc1cc(C)c(Nc2nc(C)ccc2S(=O)(=O)c2ccc(CO)cc2)c(C)c1` [Example 50, {4-[6-Methyl-2-(2,4,6-trimethylphenylamino)-pyridine-3-sulfonyl]-phenyl}-methanol], the Ki was 100 to 500 nM.

Consider `Cc1cc(C)c(NCc2ccc(S(=O)(=O)c3ccc(C)nc3Nc3c(C)cc(C)cc3C)cc2)c(C)c1` [Example 51, (6-Methyl-3-{4-[(2,4,6-trimethylphenylamino)-methyl]-benzenesulfonyl}-pyridin-2-yl)-(2,4,6-trimethylphenyl)-amine], for which the Ki was 500 to 5000 nM.

As for `Cc1cc(C)c(Nc2nc(C)ccc2S(=O)(=O)c2ccc(C=O)cc2)c(C)c1` [Example 52, 4-[6-Methyl-2-(2,4,6-trimethylphenylamino)-pyridine-3-sulfonyl]-benzaldehyde], the inhibition constant Ki was 500 to 5000 nM.

Regarding `Cc1cc(C)c(Nc2nc(C)ccc2S(=O)(=O)c2ccc(C(O)c3ccccc3)cc2)c(C)c1` (stereo not shown) [Example 53, {4-[6-Methyl-2-(2,4,6-trimethylphenylamino)-pyridine-3-sulfonyl]-phenyl}-phenyl-methanol], the Ki fell in the range of 100 to 500 nM.

Consider `C=CCOc1cccc(S(=O)(=O)c2ccc(C)nc2Nc2c(C)cc(C)cc2C)c1` [Example 59, [3-(3-Allyloxybenzenesulfonyl)-6-methylpyridin-2-yl]-(2,4,6-trimethylphenyl)-amine], for which the Ki is 100 to 500 nM.

On to `Cc1cc(C)c(Nc2nc(C)ccc2S(=O)(=O)c2cccc(OCc3ccccc3)c2)c(C)c1` [Example 60, [3-(3-Benzyloxybenzenesulfonyl)-6-methylpyridin-2-yl]-(2,4,6-trimethylphenyl)-amine], for which the Ki lay within 100 to 500 nM.

As for `Cc1cc(C)c(Nc2nc(C)ccc2S(=O)(=O)c2cccc(OCc3ccc(F)cc3)c2)c(C)c1` [Example 61, {3-[3-(4-Fluorobenzyloxy)-benzenesulfonyl]-6-methylpyridin-2-yl}-(2,4,6-trimethylphenyl)-amine], the Ki lay within 100 to 500 nM.

With `COc1cccc(COc2cccc(S(=O)(=O)c3ccc(C)nc3Nc3c(C)cc(C)cc3C)c2)c1` [Example 62, {3-[3-(3-Methoxybenzyloxy)-benzenesulfonyl]-6-methylpyridin-2-yl}-(2,4,6-trimethylphenyl)-amine], the Ki is 100 to 500 nM.

Consider `Cc1cc(C)c(Nc2nc(C)ccc2S(=O)(=O)c2cccc(OCc3ccc(Cl)nc3)c2)c(C)c1` [Example 64, {3-[3-(6-Chloropyridin-3-ylmethoxy)-benzenesulfonyl]-6-methylpyridin-2-yl}-(2,4,6-trimethylphenyl)-amine], for which the Ki lay in the range of 100 to 500 nM.

For the compound `Cc1cc(C)c(Nc2nc(C)ccc2S(=O)(=O)c2cccc(OCc3cc(Cl)nc(Cl)c3)c2)c(C)c1` [Example 65, {3-[3-(2,6-Dichloropyridin-4-ylmethoxy)-benzenesulfonyl]-6-methylpyridin-2-yl}-(2,4,6-trimethylphenyl)-amine], the Ki fell in the range of 100 to 500 nM.

As for `CCc1ccc(S(=O)(=O)c2ccc(C)nc2Nc2ccc(C)cc2C)cc1` [Example 66, (2,4-Dimethylphenyl)-[3-(4-ethylbenzenesulfonyl)-6-methylpyridin-2-yl]-amine], the Ki was 100 to 500 nM.

Regarding `CCc1ccc(S(=O)(=O)c2ccc(C)nc2Nc2ccc(OC)cc2C)cc1` [Example 67, [3-(4-Ethylbenzenesulfonyl)-6-methylpyridin-2-yl]-(4-methoxy-2-methylphenyl)-amine], the Ki is no more than 100 nM.

As to `CCc1ccc(S(=O)(=O)c2ccc(C)nc2Nc2ccc(OC)cc2OC)cc1` [Example 68, (2,4-Dimethoxyphenyl)-[3-(4-ethylbenzenesulfonyl)-6-methylpyridin-2-yl]-amine], the Ki was 100 to 500 nM.

Values taken from patent US7030145B2, “Pyridinyl derivatives for the treatment of depression” (Bristol-Myers Squibb Company, priority 2003, dated 2006).
